Test results: US12497394B2, “Fused-cyclic pyrazolone formamide compound and preparation method therefor, pharmaceutical composition and use thereof” (SHANGHAI INSTITUTE OF MATERIA MEDICA, CHINESE ACADEMY OF …, priority 2018, dated 2025)
Where “and” joins values, the source holds several entries; their conditions need not be identical. Equal entries are not always repeated. Where two headings read alike, the source gives them in different places.

Legend:
[1] = test system: BaF3/TEL-AXL cells; assay: Proliferation of BaF3/TEL-AXL cells; type: cell-based; details: for inhibition at 0.001 µM / inhibition at 0.01 µM / inhibition at 0.1 µM: BaF3/TEL-AXL
Excerpt: Experimental Example 4: Effect of the Compound on the Proliferation Effect of BaF3/TEL-AXL Cells
Based on the above-mentioned enzyme activity research results, we further explored the effect of the compound on cell proliferation mediated by receptor tyrosine kinase AXL.

[2] = biological target: receptor tyrosine kinase c-Met (Homo sapiens, UniProt P08581); assay: In vitro c-Met kinase inhibitory activity; type: biochemical; details: two values per compound; for inhibition at 0.001 µM / inhibition at 0.01 µM / inhibition at 0.1 µM: read-out: c-Met Inhibitory rate (%)
receptor tyrosine kinase c-Met, sequence (P08581 25-1390): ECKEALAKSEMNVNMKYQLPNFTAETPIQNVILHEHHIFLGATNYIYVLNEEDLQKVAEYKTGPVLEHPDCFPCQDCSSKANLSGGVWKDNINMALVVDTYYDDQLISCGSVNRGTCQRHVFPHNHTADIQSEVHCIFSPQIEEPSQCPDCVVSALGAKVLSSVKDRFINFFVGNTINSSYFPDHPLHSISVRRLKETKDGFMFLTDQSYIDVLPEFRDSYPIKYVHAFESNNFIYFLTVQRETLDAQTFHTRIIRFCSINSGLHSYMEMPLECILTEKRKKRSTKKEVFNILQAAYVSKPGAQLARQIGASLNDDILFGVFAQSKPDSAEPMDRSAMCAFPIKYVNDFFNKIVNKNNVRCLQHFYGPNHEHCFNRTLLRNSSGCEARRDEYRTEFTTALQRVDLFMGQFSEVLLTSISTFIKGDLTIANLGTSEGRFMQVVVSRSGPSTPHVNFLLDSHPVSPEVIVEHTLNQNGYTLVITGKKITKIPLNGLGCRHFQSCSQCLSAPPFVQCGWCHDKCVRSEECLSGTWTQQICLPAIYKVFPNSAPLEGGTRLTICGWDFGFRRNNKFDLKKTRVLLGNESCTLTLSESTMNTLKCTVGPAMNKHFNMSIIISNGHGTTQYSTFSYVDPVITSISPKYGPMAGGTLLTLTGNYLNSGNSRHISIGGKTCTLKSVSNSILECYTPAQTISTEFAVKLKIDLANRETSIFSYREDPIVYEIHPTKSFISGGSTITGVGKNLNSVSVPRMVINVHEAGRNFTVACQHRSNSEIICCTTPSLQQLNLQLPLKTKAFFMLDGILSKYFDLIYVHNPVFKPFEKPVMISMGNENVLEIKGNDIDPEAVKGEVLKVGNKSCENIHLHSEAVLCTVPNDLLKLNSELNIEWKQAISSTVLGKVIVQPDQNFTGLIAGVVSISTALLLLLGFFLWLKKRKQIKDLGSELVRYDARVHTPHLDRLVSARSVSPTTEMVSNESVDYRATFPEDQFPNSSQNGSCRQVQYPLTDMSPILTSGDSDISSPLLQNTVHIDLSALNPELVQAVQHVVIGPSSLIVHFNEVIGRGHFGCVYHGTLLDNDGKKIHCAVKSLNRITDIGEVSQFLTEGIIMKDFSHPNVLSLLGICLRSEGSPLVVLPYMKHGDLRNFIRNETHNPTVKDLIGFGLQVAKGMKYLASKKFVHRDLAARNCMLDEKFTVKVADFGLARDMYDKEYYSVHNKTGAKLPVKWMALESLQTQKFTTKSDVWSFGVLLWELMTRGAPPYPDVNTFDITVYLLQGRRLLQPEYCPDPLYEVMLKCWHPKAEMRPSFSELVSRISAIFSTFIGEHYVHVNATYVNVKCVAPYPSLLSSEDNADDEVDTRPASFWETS
Excerpt: Experimental Example 3: Study of In Vitro c-Met Kinase Inhibitory Activity
Since the screening results of 369 kinase profiles of compound DC621044 has shown that the compound has a certain inhibitory activity on c-Met. We further screened some compounds for their inhibitory activity on c-Met kinase.

[3] = biological target: T1, receptor tyrosine kinase AXL (Homo sapiens, UniProt P30530); assay: Enzyme activity of receptor tyrosine kinase AXL (ELISA); type: biochemical; details: for inhibition at 0.001 µM: 1 nM; for inhibition at 0.001 µM / inhibition at 0.01 µM / inhibition at 0.1 µM: read-out: AXL activity Inhibitory rate(%); for inhibition at 0.01 µM: 10 nM; for inhibition at 0.1 µM: 100 nM
T1 construct: 50 μL of AXL kinase domain recombinant protein diluted in reaction buffer was added to start the reaction; made in house; host or cells: insect cells (baculovirus expression system)
T1 sequence (P30530 536-807 limits assumed): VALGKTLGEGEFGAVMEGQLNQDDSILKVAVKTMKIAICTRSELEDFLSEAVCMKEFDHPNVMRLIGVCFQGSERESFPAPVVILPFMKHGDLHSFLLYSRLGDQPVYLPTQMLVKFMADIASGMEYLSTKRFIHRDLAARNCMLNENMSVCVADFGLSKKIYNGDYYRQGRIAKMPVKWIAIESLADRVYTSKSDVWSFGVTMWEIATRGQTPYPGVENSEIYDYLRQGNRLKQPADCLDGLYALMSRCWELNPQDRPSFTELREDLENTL
Experimental: Detection method: Enzyme-linked immunosorbent assay (ELISA)
Tested receptor tyrosine kinase: AXL
The full-wavelength microplate reader for experiment reading was a product of Molecular Device, model: SpectraMax 190; the experiment water was distilled water produced by Sinopharm Group.
Compound preparation: The compounds were centrifuged at 12,000 g for 5 min, and DMSO was added to prepare a 10^−2M stock solution, vortexed evenly and sonicated for 10 min for use, and stored at −40° C. During the test, the compound was diluted from the stock solution to 100 times the tested concentration with DMSO (the DMSO concentration in the system was 1%).
1. […] Discard the liquid from the well. The plate was washed and washed three times with T-PBS (0.1% Tween-20 in potassium-free PBS, 200 μL/well) for 5 minutes each time.
2. 49 μL of ATP solution diluted with reaction buffer (50 mM HEPES pH 7.4, 50 mM MgCl2, 0.5 mM MnCl2, 0.2 mM Na3VO4, 1 mM DTT) was added to each well, and […] of the tested compound was added to each well, and then 50 μL of AXL kinase domain recombinant protein diluted in reaction buffer was added to start the reaction. Two control wells without ATP were added in each experiment. (100 rpm) Reacted in 37° C. shaker for 1 hour. Discard the liquid from the well, and the plate was washed with T-PBS for three times.
3. […] Discard the liquid from the well, and the plate was washed with T-PBS for three times.
4. The horseradish peroxidase-labeled goat anti-mouse second antibody dilution (antibody diluted 1:2000 with BSA 5 mg/mL in T-PBS), 100 μL/well, and reacted in 37° C. shaker for 0.5 hours. Discard the liquid from the well, and the plate was washed with T-PBS for three times.
6. The reaction was quenched with 50 μL/well 2M […], and read at 490 nm using a tunable microplate reader VERSAmax.
The IC50 values were obtained by four-parameter regression analysis using the software supplied with the microplate reader.

[4] = 1 nM, two values per compound, 0.001 µM
[5] = 10 nM, two values per compound, 0.01 µM
[6] = 100 nM, two values per compound, 0.1 µM
[7] = 1 nM, two values per compound, read-out: BaF3/TEL-AXL proliferation Inhibitory rate (%)
[8] = 10 nM, two values per compound, read-out: BaF3/TEL-AXL proliferation Inhibitory rate (%)
[9] = 100 nM, two values per compound, read-out: BaF3/TEL-AXL proliferation Inhibitory rate (%)
[10] = concentration of 1 nM, read-out: inhibited the proliferation of BaF3/TEL-AXL cells

| c-Met Inhibitory rate (%) ([2]; 1 nM, 0.001 µM) | inhibition at 0.001 µM ([2]; 1 nM) [%] | c-Met Inhibitory rate (%) ([2]; 10 nM, 0.01 µM) | inhibition at 0.01 µM ([2]; 10 nM) [%] | c-Met Inhibitory rate (%) ([2]; 100 nM, 0.1 µM) | inhibition at 0.1 µM ([2]; 100 nM) [%] | IC50 [3] [nM] | inhibition at 0.001 µM [3] [%] | inhibition at 0.01 µM [3] [%] | inhibition at 0.1 µM [3] [%] | Compound | BaF3/TEL-AXL proliferation Inhibitory rate (%) [1, 4] [%] | BaF3/TEL-AXL proliferation Inhibitory rate (%) [1, 5] [%] | BaF3/TEL-AXL proliferation Inhibitory rate (%) [1, 6] [%] | inhibition at 0.001 µM [1, 7] [%] | inhibition at 0.01 µM [1, 8] [%] | inhibition at 0.1 µM [1, 9] [%] | inhibition at 0.001 µM [1, 10] [%] |
| --- | --- | --- | --- | --- | --- | --- | --- | --- | --- | --- | --- | --- | --- | --- | --- | --- | --- |
| 53.5 | 40.5 | 80.5% | 66.8 | 100 | 99.4 | 8.7 ± 1 | 29.9 | 72.5 | 100 | COCCOc1cc2ncnc(Oc3ccc(NC(=O)c4c5n(n(-c6cc(F)ccc6F)c4=O)CCCC5)cc3F)c2cc1OCCOC [DC621024, 1-(2,5-difluorophenyl)-N-(4-((6,7-bis(2-methoxyethoxy)quinazolin-4-yl)oxy)-3-fluorophenyl)-2-oxo-1,2,4,5,6,7-hexahydropyrazolo[1,5-a]pyridine-3-formamide] | 75.0 | 80.5 | 81.3 | 79.8 | 81 | 85 | > 70 |
| 55.2 | 39.5 | 75.9% | 62.4 | 97.5 | 93.9 | – | 8.2 | 54.2 | 100 | COCCOc1cc2ncnc(Oc3ccc(NC(=O)c4c5n(n(-c6ccccc6)c4=O)CCCC5)c(F)c3)c2cc1OCCOC [DC621051, N-(4-((6,7-bis(2-methoxyethoxy)quinazolin-4-yl)oxy)-2-fluorophenyl)-2-oxo-1-phenyl-1,2,4,5,6,7-hexahydropyrazolo[1,5-a]pyridine-3-formamide] | 82.9 | 85.9 | 86.6 | 84.7 | 85.8 | 86.7 | > 70 |
| 60.0 | 61.1 | 48.9% and 69.6% | – | 100 | 94.1 | – | 12.2 | 58.2 | 95.9 | COCCOc1cc2ncnc(Oc3ccc(NC(=O)c4c5n(n(-c6cc(F)ccc6F)c4=O)CCCC5)c(F)c3)c2cc1OCCOC [DC621054, 1-(2,5-difluorophenyl)-N-(4-((6,7-bis(2-methoxyethoxy)quinazolin-4-yl)oxy)-2-fluorophenyl)-2-oxo-1,2,4,5,6,7-hexahydropyrazolo[1,5-a]pyridine-3-formamide] | 81.8 | 82.5 | 86.1 | 79.6 | 82.8 | 84.7 | – |
| 51.3 | 34 | 64.0% | 55.2 | 95.9 | 94.6 | – | 16 | 55.1 | 91.9 | COCCOc1cc2ncnc(Oc3ccc(NC(=O)c4c5n(n(-c6ccccc6F)c4=O)CCCC5)c(F)c3)c2cc1OCCOC [DC621057, N-(4-((6,7-bis(2-methoxyethoxy)quinazolin-4-yl)oxy)-2-fluorophenyl)-1-(2-fluorophenyl)-2-oxo-1,2,4,5,6,7-hexahydropyrazolo[1,5-a]pyridine-3-formamide] | 76.6 | – | 86.0 | 69.5 | 83.2 | 87.5 | – |
| – | – | 58.1% | 43.9 | 95.4 | 91.9 | – | 21.5 | 54.4 | 84.2 | COCCOc1cc2ncnc(Oc3ccc(NC(=O)c4c5n(n(-c6ccc(F)cc6)c4=O)CCCC5)c(F)c3)c2cc1OCCOC [DC621060, N-(4-((6,7-bis(2-methoxyethoxy)quinazolin-4-yl)oxy)-2-fluorophenyl)-1-(4-fluorophenyl)-2-oxo-1,2,4,5,6,7-hexahydropyrazolo[1,5-a]pyridine-3-formamide] | 66.3 | 73.4 | 85.3 | 64.5 | 71 | 85.4 | – |
| 32.4 | 17.7 | 56.2% | 46.4 | 99.2 | 94.8 | – | 11.5 | 60.5 | 91.8 | O=C(Nc1ccc(Oc2ncnc3cc4c(cc23)OCCOCCOCCO4)c(F)c1)c1c2n(n(-c3cc(F)ccc3F)c1=O)CCCC2 [DC621063, 1-(2,5-difluorophenyl)-N-(3-fluoro-4-((7,8,10,11,13,14-hexahydro-[1,4,7,10]tetraoxacyclododecane[2,3-g]quinazolin-4-yl)oxy)phenyl)-2-oxo-1,2,4,5,6,7-hexahydropyrazolo[1,5-a]pyridine-3-formamide] | 61.0 | 66.0 | 78.2 | 47.8 | 67.2 | 82.3 | – |
| – | – | – | – | – | – | – | 8.6 | 54.5 | 89 | O=C(Nc1ccc(Oc2ncnc3cc4c(cc23)OCCOCCOCCO4)c(F)c1)c1c2n(n(-c3ccc(F)cc3)c1=O)CCCC2 [DC621067, N-(3-fluoro-4-((7,8,10,11,13,14-hexahydro-[1,4,7,10]tetraoxacyclododecane [2,3-g]quinazolin-4-yl)oxy)phenyl)-1-(4-fluorophenyl)-2-oxo-1,2,4,5,6,7-hexahydropyrazolo[1,5-a]pyridine-3-formamide] | 74.8 | 85.4 | 83.0 | 80.6 | 87.2 | 80.8 | – |
| – | – | 63.7% and 38.0% | – | 89.1 | 94.4 | – | 18.9 | 59.2 | 93 | COCCOc1cc2ncnc(Oc3ccc(NC(=O)c4c5n(n(-c6ccc(F)cc6)c4=O)CCCC5)cc3Cl)c2cc1OCCOC [DC621100, N-(4-((6,7-bis(2-methoxyethoxy)quinazolin-4-yl)oxy)-3-chlorophenyl)-1-(4-fluorophenyl)-2-oxo-1,2,4,5,6,7-hexahydropyrazolo[1,5-a]pyridine-3-formamide] | – | – | – | – | – | – | – |
